“Also recorded” adds a separate entry of the source. Like-named read-outs stand apart in the source and are kept apart here. Ends that are not written are not given here.
What was measured:
[1] = tested on: slow AHP of hippocampal neurons; conditions: ref King et al., 2015, Shah & Haylett, 2000, Church et al., 2019, Higham et al.; cited from earlier work
[2] = biological target: T1, heteromeric hSK1:hIKCa channel (Homo sapiens, UniProt O15554+Q92952); conditions: ref Higham et al., 2019, Church et al.; cited from earlier work
T1 construct: expressed in transfected cells; host or cells: tsA201 cells

[3] = tested on: hSK1 channel; experiment: Ca2+ activation of ramp currents, inside-out macropatches, homomeric hSK1; type: cell-based, human
Description: (§1) TsA201 cells were maintained in culture at 37°C and 5% CO2, being grown in culture flasks with Dulbecco's Modified Eagle Medium (DMEM) supplemented with foetal bovine serum (10%) and penicillin and streptomycin (1%). Cells were passaged at ~80% confluence. The cDNA of KCa channel subunits and one encoding expression of enhanced green fluorescent protein (eGFP) (using pcDNA3.1 or equivalent vectors) were transfected into tsA201 cells using polyethylenimine (PEI) (Merck/Sigma, UK) at a concentration of 0.2 mg/mL (Higham et al., [2019]). Cells were used 48 h after transfection. All mutations were carried out using QuikChange II XL (Stratagene).
(§2) Sensitivity of expressed channels to Ca^2+ was assessed using inside‐out macropatches excised from eGFP‐positive cells, using electrodes of resistance 1–3 MΩ. A range of free Ca^2+ concentrations was used, from 30 nM to 3 μM in half log10 increments. We used external solution to bath inside‐out patches, with the free Ca^2+ concentration calculated to maintain free Mg^2+ at 1 mM. Solutions were designed using REACT, with pH adjusted to 7.4 and osmolarity between 280 and 310 mOsm.

[4] = biological target: T2, hIKCa channel (Homo sapiens, UniProt O15554); experiment: Ca2+ activation of ramp currents, inside-out macropatches, homomeric hIKCa; type: cell-based
T2 construct: expressed in transfected cells; host or cells: tsA201 cells
Description: as §1, §2

[5] = tested on: SK channels native to CA1 hippocampal neurons; parameters: method as in Hirschberg et al., 1999; conditions: ref Hirschberg et al., 1999; read-out: EC50 for activation of SK channels native to CA1 hippocampal neurons; cited from earlier work
[6] = biological target: T1, heteromeric hSK1:hIKCa channel; experiment: Ca2+ activation of ramp currents, inside-out macropatches, heteromeric hSK1:hIKCa; type: cell-based
Description: as §1, §2

[7] = biological target: T1, heteromeric hSK1:hIKCa channel; experiment: Outside-out patch current inhibition, heteromeric wildtype hSK1:hIKCa expressed in tsA201 cells; type: cell-based; conditions: for extent of inhibition of heteromeric hSK1:hIKCa current: concentration-inhibition relationship
Description: as §1
(§3) Outside‐out patches were excised from eGFP‐positive cells, pulled from thick‐walled (1.5 mm OD × 0.86 mm ID) borosilicate glass capillaries (Harvard Apparatus, UK), fire‐polished and filled with internal solution containing in mM: 97 K aspartate, 20 KCl, 1.5 Na2ATP, 10 EGTA, 9.65 CaCl2 (1 μM free Ca^2+), 10 HEPES Na, 2.5 MgCl2 (pH 7.4 and osmolarity between 280 and 310 mOsm). Cells were bathed in, and patches excised into, an external solution containing in mM: 97 K Aspartate, 30 KCl, 10 HEPES Na^+, 6.19 CaCl2 (1 μM free Ca^2+), 1.44 MgCl2 (pH 7.4, 280–310 mOsm). Free Ca^2+ concentrations were calculated using REACT (University of Strathclyde). […] Current was measured using an Axopatch 200A amplifier, low‐pass filtered (cut off 1 kHz, Bessel, Frequency Devices) and acquired at 10 kHz (Pulse, HEKA). All recordings were made at room temperature. Apamin (Sigma‐Aldrich, UK), 6,12,19,20,25,26‐hexahydro‐5,27:13,18:21,24‐trietheno‐11,7‐metheno‐7H‐dibenzo [b,n] […] UCL1684 was dissolved at a stock concentration of 100 μM in DMSO, and aliquots were stored at −20°C. Finally, apamin was dissolved in distilled water at a stock concentration of 100 μM, and aliquots were stored at −20°C. All compounds were defrosted on the day of recording, with aliquots only thawed once, and desired concentrations were prepared by dilution in external solution.
(§4) Biphasic concentration–inhibition relationships were fitted using the following equation: I/Icontrol=Amin+Afrac−Amin/1+10^LogIC50,a−X×nH,a +Amax−Amin/1+10^LogIC50,b−X×nH,b where A frac is current amplitude at the maximum of the high‐sensitivity component I frac /I cont , IC 50,a is the IC50 of the high‐sensitivity component, n H,a is the Hill coefficient of the high‐sensitivity component, IC 50,b is the IC50 of the low‐sensitivity component, and n H,b is the Hill coefficient of the low‐sensitivity component. […] Statistical significance was determined using appropriate tests that are stated in the figure legend.

[8] = biological target: hSK1:hIKCa[H389E] channels (Homo sapiens, UniProt O15554+Q92952, H389E); experiment: Outside-out patch current inhibition, cells co-expressing hSK1 and hIKCa[H389E]; type: cell-based
Description: as §1, §3, §4

[9] = biological target: hSK1[S348T + A371V]:hIKCa heteromeric channel (Homo sapiens, UniProt O15554+Q92952, A355V/S330T); experiment: Outside-out patch current inhibition, heteromeric hSK1[S348T + A371V]:hIKCa; type: cell-based
Description: as §1
(§5) Outside‐out patches were excised from eGFP‐positive cells, pulled from thick‐walled (1.5 mm OD × 0.86 mm ID) borosilicate glass capillaries (Harvard Apparatus, UK), fire‐polished and filled with internal solution containing in mM: 97 K aspartate, 20 KCl, 1.5 Na2ATP, 10 EGTA, 9.65 CaCl2 (1 μM free Ca^2+), 10 HEPES Na, 2.5 MgCl2 (pH 7.4 and osmolarity between 280 and 310 mOsm). […] Free Ca^2+ concentrations were calculated using REACT (University of Strathclyde). […] Current was measured using an Axopatch 200A amplifier, low‐pass filtered (cut off 1 kHz, Bessel, Frequency Devices) and acquired at 10 kHz (Pulse, HEKA). […]

[10] = tested on: hSK1[S348T + A371V] channel; experiment: Outside-out patch current inhibition, homomeric pore mutant hSK1[S348T + A371V]; type: cell-based, human
Description: as §1, §5

[11] = tested on: hSK1:hIKCa[H389E] channels; experiment: Outside-out patch current inhibition, cells co-expressing hSK1 and hIKCa[H389E]; type: cell-based, human; conditions: biphasic fit, hSK1:hIKCa[H389E]-mediated current
Description: as §1, §3, §4

[12] = tested on: hSK1 channel; experiment: Outside-out patch current inhibition, homomeric hSK1; type: cell-based, human
Description: as §1
Outside‐out patches were excised from eGFP‐positive cells, pulled from thick‐walled (1.5 mm OD × 0.86 mm ID) borosilicate glass capillaries (Harvard Apparatus, UK), fire‐polished and filled with internal solution containing in mM: 97 K aspartate, 20 KCl, 1.5 Na2ATP, 10 EGTA, 9.65 CaCl2 (1 μM free Ca^2+), 10 HEPES Na, 2.5 MgCl2 (pH 7.4 and osmolarity between 280 and 310 mOsm). Cells were bathed in, and patches excised into, an external solution containing in mM: 97 K Aspartate, 30 KCl, 10 HEPES Na^+, 6.19 CaCl2 (1 μM free Ca^2+), 1.44 MgCl2 (pH 7.4, 280–310 mOsm). Free Ca^2+ concentrations were calculated using REACT (University of Strathclyde). […] Current was measured using an Axopatch 200A amplifier, low‐pass filtered (cut off 1 kHz, Bessel, Frequency Devices) and acquired at 10 kHz (Pulse, HEKA). […]
as §4

[13] = tested on: hSK1 channel; parameters: method as in Higham et al., 2019; conditions: ref Higham et al., 2019; cited from earlier work
[14] = biological target: T3, hIKCa (WT) channel (Homo sapiens, UniProt O15554); experiment: Outside-out patch current inhibition, homomeric wildtype hIKCa expressed in tsA201 cells; type: cell-based
T3 construct: expressed in transfected cells; host or cells: tsA201 cells
Description: as §1, §5

[15] = biological target: T4, hIKCa[H389E] channel (Homo sapiens, UniProt O15554, H389E); experiment: Outside-out patch current inhibition, homomeric hIKCa[H389E]; type: cell-based; conditions: TRAM-34 10 μM
T4 construct: expressed in transfected cells; host or cells: tsA201 cells
Description: as §1, §5

[16] = concentration-inhibition relationship

Sequence of hSK1:hIKCa[H389E] channels (Homo sapiens, UniProt O15554+Q92952, H389E) (O15554 whole entry H389E): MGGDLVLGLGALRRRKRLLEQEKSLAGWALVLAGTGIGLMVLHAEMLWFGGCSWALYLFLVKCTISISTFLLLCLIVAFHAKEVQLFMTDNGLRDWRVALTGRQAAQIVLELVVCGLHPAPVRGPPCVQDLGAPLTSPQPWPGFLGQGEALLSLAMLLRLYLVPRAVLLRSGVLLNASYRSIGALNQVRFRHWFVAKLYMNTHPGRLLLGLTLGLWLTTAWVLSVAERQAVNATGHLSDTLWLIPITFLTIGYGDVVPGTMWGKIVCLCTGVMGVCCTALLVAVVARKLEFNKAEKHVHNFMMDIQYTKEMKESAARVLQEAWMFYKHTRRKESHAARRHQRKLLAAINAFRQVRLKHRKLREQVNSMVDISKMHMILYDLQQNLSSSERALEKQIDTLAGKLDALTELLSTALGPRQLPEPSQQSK
Sequence of hSK1:hIKCa[H389E] channels (Homo sapiens, UniProt O15554+Q92952, H389E) (Q92952 whole entry): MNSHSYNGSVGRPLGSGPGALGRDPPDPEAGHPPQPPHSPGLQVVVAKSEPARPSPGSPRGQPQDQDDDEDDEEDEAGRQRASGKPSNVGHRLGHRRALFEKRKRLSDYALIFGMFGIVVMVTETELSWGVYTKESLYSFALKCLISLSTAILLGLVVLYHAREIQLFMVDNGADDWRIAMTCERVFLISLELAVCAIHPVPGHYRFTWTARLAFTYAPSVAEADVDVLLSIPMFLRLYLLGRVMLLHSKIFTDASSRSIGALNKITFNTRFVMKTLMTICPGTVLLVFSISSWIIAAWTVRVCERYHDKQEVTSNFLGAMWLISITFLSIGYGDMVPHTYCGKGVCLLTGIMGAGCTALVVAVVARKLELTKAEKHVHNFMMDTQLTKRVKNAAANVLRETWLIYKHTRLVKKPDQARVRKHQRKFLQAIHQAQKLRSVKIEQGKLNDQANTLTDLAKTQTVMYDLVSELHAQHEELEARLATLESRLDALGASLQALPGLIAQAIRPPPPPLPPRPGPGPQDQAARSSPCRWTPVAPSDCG
T1 sequence (O15554 whole entry): as the sequence (O15554 whole entry H389E) above, with E389H counted along it
T1 sequence (Q92952 other isoform, or with tags, fused parts or gaps): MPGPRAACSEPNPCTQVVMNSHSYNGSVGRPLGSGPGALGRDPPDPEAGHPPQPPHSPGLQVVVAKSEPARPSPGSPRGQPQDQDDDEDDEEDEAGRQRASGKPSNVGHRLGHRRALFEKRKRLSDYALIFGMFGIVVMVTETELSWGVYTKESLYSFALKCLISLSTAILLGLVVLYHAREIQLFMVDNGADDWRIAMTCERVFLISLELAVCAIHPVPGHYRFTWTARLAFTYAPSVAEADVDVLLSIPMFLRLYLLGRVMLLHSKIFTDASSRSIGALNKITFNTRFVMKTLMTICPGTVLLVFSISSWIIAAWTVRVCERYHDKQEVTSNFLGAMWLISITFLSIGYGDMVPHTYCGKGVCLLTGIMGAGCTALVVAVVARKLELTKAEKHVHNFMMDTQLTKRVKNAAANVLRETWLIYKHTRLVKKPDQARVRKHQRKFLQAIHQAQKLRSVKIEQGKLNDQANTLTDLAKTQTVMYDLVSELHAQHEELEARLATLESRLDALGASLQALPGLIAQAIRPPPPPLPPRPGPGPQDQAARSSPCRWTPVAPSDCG
T2 sequence (O15554 whole entry): as the sequence (O15554 whole entry H389E) above, with E389H counted along it
Sequence of hSK1[S348T + A371V]:hIKCa heteromeric channel (O15554 whole entry): as the sequence (O15554 whole entry H389E) above, with E389H counted along it
Sequence of hSK1[S348T + A371V]:hIKCa heteromeric channel (Q92952 whole entry S330T/A355V): as the sequence (Q92952 whole entry) above, with S330T, A355V counted along it
T3 sequence (O15554 whole entry): as the sequence (O15554 whole entry H389E) above, with E389H counted along it
T4 sequence (O15554 whole entry H389E): as the sequence (O15554 whole entry H389E) above

Molecule: charybdotoxin
- sensitivity of the slow AHP [1]: sensitive
- sensitivity of hSK1:hIKCa channel current [2]: sensitive

Molecule: [Ca+2] [Ca^2+]
- activity of homomeric hSK1 channels at 100 nM Ca2+ ([3]; 100 nM Ca2+): inactive
- nH for activation of homomeric hSK1-mediated current ([3]; inside-out patches): 5.26 ± 0.82
- EC50 ([3]; inside-out patches, tsA201 cells, read-out: EC50 for activation of homomeric hSK1-mediated current): 531 ± 78 nM
- activity of homomeric hIKCa channels at 100 nM Ca2+ ([4]; 100 nM Ca2+): 10%
- nH for activation of homomeric hIKCa-mediated ramp currents ([4]; inside-out patches): 4.10 ± 0.57
- EC50 ([4]; inside-out patches, tsA201 cells, read-out: EC50 for activation of homomeric hIKCa-mediated ramp currents): 409 ± 15.3 nM
- EC50 [5]: 560 nM
- activity of heteromeric hSK1:hIKCa channels at 100 nM Ca2+ ([6]; 100 nM Ca2+): inactive
- nH for activation of heteromeric hSK1:hIKCa-mediated ramp currents ([6]; inside-out patches): 3.93 ± 0.29
- EC50 ([6]; inside-out patches, tsA201 cells, read-out: EC50 for activation of heteromeric hSK1:hIKCa-mediated ramp currents): 613 ± 27.6 nM

Molecule: apamin: SK channel inhibitor; negative allosteric inhibitor for SK1–3 channels (CNCKAPETALCARRCQQH; not fully specified (C-terminus, bridges); cysteine pairing not given here; UniProt P01500 28-45, looked up)
- sensitivity of the slow AHP [1]: insensitive
- effect on current from cells co-expressing wildtype hSK1 and hIKCa ([7]; apamin 100 nM): had no effect
- reduction of current amplitude, cells co-expressing hSK1 and hIKCa[H389E] ([8]; apamin 100 nM): 17.3 ± 1.8%
- sensitivity of hSK1[S348T + A371V]:hIKCa current ([9]; apamin 100 nM): insensitive
- sensitivity of hSK1:hIKCa channel current [2]: insensitive
- extent of inhibition of hSK1[S348T + A371V] current ([10]; apamin 100 nM): completely inhibited

Molecule: [Br-].[Br-].c1cc2cc(c1)C[n+]1ccc(c3ccccc31)NCc1ccc(cc1)CNc1cc[n+](c3ccccc13)C2 [UCL1684, 6,12,19,20,25,26‐hexahydro‐5,27:13,18:21,24‐trietheno‐11,7‐metheno‐7H‐dibenzo [b,n] [1,5,12,16]tetraazacyclotricosine‐5,13‐diium dibromide]
- extent of inhibition of heteromeric hSK1:hIKCa current [7]: sub‐maximally inhibited
- IC50 ([7]; outside-out patches, tsA201 cells, 1 μM free Ca2+, sub-maximal inhibition, read-out: IC50 for inhibition of heteromeric hSK1:hIKCa (WT) current): 236 ± 82 nM
- nH(a) of the high-sensitivity component [11]: 0.910 ± 0.02
- nH(b) of the low-sensitivity component [11]: 0.930 ± 0.1
- IC50 ([11]; read-out: IC50(a) of the high-sensitivity component): 0.511 ± 0.0002 nM
- IC50 ([11]; read-out: IC50(b) of the low-sensitivity component): 301 ± 84.6 nM
- maximal inhibition of hSK1:hIKCa[H389E]-mediated current ([8]; two component concentration-inhibition curve): 50.9 ± 12.5%
- extent of inhibition of homomeric hSK1-mediated current [12, 16]: maximally inhibited
- difference in sensitivity between homomeric hSK1-mediated and heteromeric hSK1:hIKCa-mediated current ([12]; hSK1 versus hSK1:hIKCa): < 200 fold
- IC50 ([12]; outside-out patches, tsA201 cells, maximal inhibition, read-out: IC50 for inhibition of homomeric hSK1-mediated current): 0.783 ± 0.38 nM

Molecule: Clc1ccccc1C(c1ccccc1)(c1ccccc1)n1cccn1 [TRAM‐34, 1‐[(2‐chlorophenyl)diphenylmethyl]‐1H‐pyrazole]
- sensitivity of the slow AHP [1]: sensitive
- extent of inhibition of heteromeric hSK1:hIKCa current [7]: sub‐maximal inhibition
- extent of inhibition of hSK1:hIKCa[H389E] current [8, 16]: only partially inhibited
- effect on wildtype hSK1-mediated current [13]: insensitive; also recorded: does not affect
- extent of inhibition of hSK1[S348T + A371V]:hIKCa current ([9]; TRAM-34 10 μM): fully sensitive
- sensitivity of hSK1:hIKCa channel current [2]: sensitive
- extent of inhibition of homomeric hIKCa-mediated current [14, 16]: fully inhibited
- inhibition at 10 µM ([14]; tsA201, TRAM-34 10 μM, read-out: inhibition of hIKCa (WT)-mediated current): 87 ± 2.6%
- extent of block of hSK1[S348T + A371V]-mediated current ([10]; TRAM-34 10 μM): fully blocked
- block of hIKCa[H389E]-mediated current [15]: 83.7 ± 2.0%

Source: PMC10952195, “A single coiled‐coil domain mutation in hIKCa channel subunits disrupts preferential formation of heteromeric hSK1:hIKCa channels” (The European Journal of Neuroscience, 2023)
